Test results from patent publication US20220330549A1, “USE OF N-BENZYLBENZAMIDE-BASED COMPOUND AS HERBICIDE” (Northwest A&F University, priority 2020, published 2022).

Tests used:
Assay type in all cases: in vivo
[1] = test system: Digitaria sanguinalis; test: Herbicidal activity test for indoor pre-emergence soil treatment; conditions: 150 g a.i./ha, visual inspection 21 days after treatment
In short: (§1)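 Compounds were formulated as 10% emulsifiable concentrates and sprayed onto the soil 24 h after sowing, at 150 g(a.i.)/ha. Soil was sandy loam (≤2% organic matter), with seeds under 0.5–2.0 cm cover, per NY/T 1155.3-2006. Visual 1–9 ratings relative to blank control were made after 21 days.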

[2] = test system: Amaranthus retroflexus; test: as above; conditions: 150 g a.i./ha, visual inspection 21 days after treatment
In short: as §1

[3] = test system: green bristlegrass; test: as above; conditions: 150 g a.i./ha, visual inspection 21 days after treatment
In short: as §1

[4] = test system: Piemarker; test: as above; conditions: 150 g a.i./ha, visual inspection 21 days after treatment
In short: as §1

[5] = test system: Barnyard grass; test: as above; conditions: 150 g a.i./ha, visual inspection 21 days after treatment
In short: as §1

[6] = test system: Humulus scandens; test: as above; conditions: 150 g a.i./ha, visual inspection 21 days after treatment
In short: as §1

[7] = test system: Cyperaceae; test: Post-emergence herbicidal activity test in a paddy field; conditions: 150 g a.i./ha (penoxsulam control 250 g(a.i.)/h)
In short: (§2)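 Efficacy was visually estimated 15 and 30 days after spraying, grading weed coverage relative to an untreated neighbouring plot (level 2 = 0 to 2.5%, level 9 = 67.6 to 100%). Treatments were 150 g(a.i.)/ha from 10% emulsifiable concentrates applied at the 4-5 leaf rice stage, four repeats of 50 m^2 each.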

[8] = test system: Broadleaf weed; test: as above; conditions: 150 g a.i./ha (penoxsulam control 250 g(a.i.)/h)
In short: as §2

[9] = test system: Gramineae; test: as above; conditions: 150 g a.i./ha (penoxsulam control 250 g(a.i.)/h)
In short: as §2

[10] = test system: Humulus scandens; test: Herbicidal activity test for indoor post-emergence spraying on stems and leaves; conditions: 150 g a.i./ha, visual inspection 21 days after treatment
In short: (§3)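 Weeds were grown in a greenhouse from seed and treated by foliar spraying after emergence, per the NY/T 1155.4-2006 method. Visual grading at 21 days: each level reflects the share of weed remaining versus the untreated blank control area.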

[11] = test system: Digitaria sanguinalis; test: as above; conditions: 150 g a.i./ha, visual inspection 21 days after treatment
In short: as §3

[12] = test system: green bristlegrass; test: as above; conditions: 150 g a.i./ha, visual inspection 21 days after treatment
In short: as §3

[13] = test system: Amaranthus retroflexus; test: as above; conditions: 150 g a.i./ha, visual inspection 21 days after treatment
In short: as §3

[14] = test system: Piemarker; test: as above; conditions: 150 g a.i./ha, visual inspection 21 days after treatment
In short: as §3

[15] = test system: Barnyard grass; test: as above; conditions: 150 g a.i./ha, visual inspection 21 days after treatment
In short: as §3

[16] = test system: Acalypha australis; test: Field test for weed control in a corn field
In short: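 Herbicidal activity against weeds was assessed in corn plots by the GB/T 17980.42-2000 method. Corn at the 2–5 leaf stage received water sprays of 10% emulsifiable concentrates at 150 g(a.i.)/ha, four repeats per treatment over 20 m^2. A 25% mesotrione oil dispersion was the reference. Damage symptoms and severity were rated on levels 1-9 relative to weeds in the blank control area.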

[17] = test system: Solanum nigrum; test: Field test for weed control in a corn field
In short: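 In a corn field trial based on GB/T 17980.42-2000, 10% emulsifiable concentrates diluted in water were sprayed at 150 g(a.i.)/ha at the 2 to 5 leaf stage of corn. Each treatment used 20 m^2 plots and was repeated 4 times, with 25% mesotrione oil dispersion as the reference agent. Solanum nigrum damage was scored on a 1-9 scale against blank control plots.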

[18] = test system: Digitaria sanguinalis; test: Field test for weed control in a corn field
In short: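 Field trial in a corn field following GB/T 17980.42-2000. Test compounds were formulated as 10% emulsifiable concentrates, diluted in water and sprayed post-emergence at 150 g(a.i.)/ha when corn had 2 to 5 leaves, with 4 replicates on 20 m^2 plots. Control of Digitaria sanguinalis was scored on a 1-9 scale based on weed damage relative to the untreated blank area.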

[19] = test system: Chenopodium album; test: Field test for weed control in a corn field
In short: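 Field weed-control testing in corn, run per GB/T 17980.42-2000, scored Chenopodium album on a 1-9 level scale, where each level matches a percentage range of weed remaining relative to the blank control area. Sprays of 10% emulsifiable concentrates in water delivered 150 g(a.i.)/ha at the corn 2-leaf to 5-leaf stage on 20 m^2 plots, four replicates each. Mesotrione 25% oil dispersion served as reference.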

[20] = test system: green bristlegrass; test: Field test for weed control in a corn field
In short: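 Herbicidal activity against green bristlegrass was assessed in corn field plots of 20 m^2 per GB/T 17980.42-2000. Test agents, formulated as 10% emulsifiable concentrates, were applied in water at 150 g(a.i.)/ha at the corn 2 leaves to 5 leaves stage, repeated 4 times. A 25% mesotrione oil dispersion served as the control agent, and weed damage was rated on levels 1-9.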

[21] = test system: Amaranthus retroflexus; test: Field test for weed control in a corn field
In short: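 Post-emergence control of Amaranthus retroflexus was assessed in corn plots using the GB/T 17980.42-2000 method. Emulsifiable concentrates (10%) in water were applied by spraying at the 2- to 5-leaf crop stage on 20 m^2 plots, four replicates each, alongside a mesotrione 25% oil dispersion reference. Herbicidal activity was scored on 1-9 levels by weed amount relative to blank control areas.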

[22] = test system: nutgrass flatsedge; test: Field test for weed control in a corn field
In short: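 Herbicidal effect on nutgrass flatsedge was measured in a field planted with corn, using the GB/T 17980.42-2000 method. Emulsifiable concentrates (10%) in water were sprayed at 150 g(a.i.)/ha during the 2-leaf to 5-leaf corn stage, on 20 m^2 plots repeated 4 times. 25% mesotrione oil dispersion was the control agent. Activity was scored from 1 to 9 by weed remaining relative to blank control plots.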

[23] = test system: Barnyard grass; test: Field test for weed control in a corn field
In short: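 Herbicidal activity against barnyard grass was assessed in corn field plots of 20 m^2, with four replicates per treatment. Compounds were applied as water-diluted 10% emulsifiable concentrates at 150 g(a.i.)/ha at the 2-5 leaf corn stage, with 25% mesotrione oil dispersion as the reference agent. Damage was scored on a 1-9 scale against untreated blank plots.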

[24] = test system: Portulaca oleracea; test: Field test for weed control in a corn field
In short: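 Post-emergence weed control was evaluated in a corn field by the GB/T 17980.42-2000 method. Emulsifiable concentrates (10%) in water were applied as sprays at 150 g(a.i.)/ha at the 2-5 leaf corn stage, in four replicate 20 m^2 plots. A 25% mesotrione oil dispersion served as control agent. Effects were graded 1-9 relative to weed remaining in blank control areas.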

[25] = test system: Convolvulus arvensis; test: Field test for weed control in a corn field
In short: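 Post-emergence herbicidal activity on Convolvulus arvensis was scored in a corn field on a 1-9 scale, based on symptoms and damage severity. Each level corresponds to the weed remaining as a percentage of the blank control area. Sprays of 10% emulsifiable concentrate at 150 g(a.i.)/ha went on at the corn 2–5 leaf stage, with four replicates of 20 m^2 per treatment.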

[26] = test system: goosegrass; test: Field test for weed control in a corn field
In short: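 In this field trial in corn, run per GB/T 17980.42-2000, test agents prepared as 10% emulsifiable concentrates were applied in water as sprays at 150 g(a.i.)/ha at the 2- to 5-leaf corn stage. Each treatment covered 20 m^2 and was repeated 4 times. Goosegrass control was scored 1-9 relative to weed remaining in blank control areas.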

[27] = 150 g(a.i.)/ha, 21 days after treatments
[28] = 150 g a.i./ha, 30 days after treatment

Compound: Cc1cccc(CNC(=O)c2cccc(C)c2)c1 [Compound B14, 3-methyl-N-(3-methylbenzyl)benzamide]
- Herbicidal Activity Digitaria sanguinalis [1]: 2 (equivalent to 0 to 2.5% of the weed in the blank control area)
- Herbicidal Activity Amaranthus retroflexus [2]: 2 (equivalent to 0 to 2.5% of the weed in the blank control area)
- Herbicidal Activity Green bristlegrass [3]: 1
- Herbicidal Activity Piemarker [4]: 1
- Herbicidal Activity Barnyard grass [5]: 1
- Herbicidal Activity Humulus scandens [6]: 3 (equivalent to 2.6 to 5% of the weed in the blank control area)
- Herbicidal activity 15 days after treatment Cyperaceae ([7]; 15 days after treatment): 1
- Herbicidal activity 30 days after treatment Cyperaceae ([7]; 30 days after treatment): 1
- Herbicidal activity 15 days after treatment Broadleaf weed ([8]; 15 days after treatment): 1
- Herbicidal activity 30 days after treatment Broadleaf weed ([8]; 30 days after treatment): 1
- Herbicidal activity 15 days after treatment Gramineae ([9]; 15 days after treatment): 1
- Herbicidal activity 30 days after treatment Gramineae ([9]; 30 days after treatment): 1
- Herbicidal Activity Humulus scandens [10]: 1
- Herbicidal Activity Digitaria sanguinalis [11]: 1
- Herbicidal Activity Green bristlegrass [12]: 1
- Herbicidal Activity Amaranthus retroflexus [13]: 1
- Herbicidal Activity Piemarker [14]: 1
- Herbicidal Activity Barnyard grass [15]: 1
- Post-emergence weed control effect, Acalypha australis ([16]; 150 g a.i./ha, after treatment): 1
- controlling effect on Acalypha australis [16, 27]: 1
- Post-emergence weed control effect, Solanum nigrum [17, 28]: 1
- controlling effect on Solanum nigrum [17, 27]: 1
- Post-emergence weed control effect, Digitaria sanguinalis ([18]; 150 g a.i./ha, after treatment): 1
- controlling effect on Digitaria sanguinalis [18, 27]: 1
- Post-emergence weed control effect, Chenopodium album ([19]; 150 g a.i./ha, after treatment): 1
- controlling effect on Chenopodium album [19, 27]: 1
- Post-emergence weed control effect, Green bristlegrass ([20]; 150 g a.i./ha, after treatment): 1
- controlling effect on green bristlegrass [20, 27]: 1
- Post-emergence weed control effect, Amaranthus retroflexus [21, 28]: 1
- controlling effect on Amaranthus retroflexus [21, 27]: 1
- Post-emergence weed control effect, Nutgrass flatsedge ([22]; 150 g a.i./ha, after treatment): 1
- controlling effect on nutgrass flatsedge [22, 27]: 1
- Post-emergence weed control effect, Barnyard grass [23, 28]: 1
- controlling effect on barnyard grass [23, 27]: 1
- Post-emergence weed control effect, Portulaca oleracea ([24]; 150 g a.i./ha, after treatment): 1
- controlling effect on Portulaca oleracea [24, 27]: 1
- Post-emergence weed control effect, Convolvulus arvensis ([25]; 150 g a.i./ha, after treatment): 1
- controlling effect on Convolvulus arvensis [25, 27]: 1
- Post-emergence weed control effect, Goose grass ([26]; 150 g a.i./ha, after treatment): 1
- controlling effect on goosegrass [26, 27]: 1
